Source: patent publication US9128100B2, “Non-invasive diagnostic method for the evaluation of intestinal lactase deficiency (hypolactasia)” (Venter Pharma, S.L., priority 2012, dated 2015)
“And” between values parts separate entries of the source, which are not always exact repeats. Equal entries are not always repeated. “Also recorded” adds a separate entry of the source.

Key:
intestinal lactase [1] = target: T1, intestinal lactase (Homo sapiens, UniProt P09848); assay: Urinary excretion of xylose after single oral doses of 4-GX in healthy volunteers; format: in vivo
T1 construct: after its oral administration it is hydrolysed by the intestinal mucosa enzyme; from tissue; host or cells: small-intestinal mucosa (enterocyte brush border) of living human volunteers and patients, in vivo
Description: Two groups of subjects were selected. […] Firstly, the lowest suitable oral dose of 4-GX administered to healthy volunteers was determined that enabled reliable detection (in terms of accuracy and reproducibility) of xylose levels in urine and blood via the analytical method to be used. In addition, the tolerance of these subjects to the various doses of 4-GX used in the test and the pharmacokinetics for each dose administered were analysed, both in urine and blood. The doses of 4-GX used were: 0.125 g, 0.250 g, 0.5 g, 1 g, 3 g and 6 g in addition to placebo in 12 healthy volunteers with washout period between doses of between three and seven days. It should be appreciated that the 4-GX doses can include small quantities of water which remain subsequent to the drying process of the 4-GX product. For example, the 4-GX product can contain about 8 wt % to about 12 wt %, most likely about 10 wt % water, based on the total weight of the product. […] In each study period, an ascending dose of 4-GX was administered and the serum and urine concentrations of xylose were measured at various times up to 8 hours following the administration of the drug.
The main measured variable was the quantity of xylose in urine collected following oral administration of 4-GX at the following times: basal, 0-1 h, 1-2 h, 2-3 h, 3-4 h, 4-5 h, 5-6 h, 6-7 h and 7-8 h. […]

intestinal lactase [2] = target: T1, intestinal lactase; assay: Plasma xylose concentration after single oral doses of 4-GX in healthy volunteers; format: in vivo; details: for AUC 0-t: area under the curve of plasma xylose concentration against time: mean
Description: (§1) Two groups of subjects were selected. […] Firstly, the lowest suitable oral dose of 4-GX administered to healthy volunteers was determined that enabled reliable detection (in terms of accuracy and reproducibility) of xylose levels in urine and blood via the analytical method to be used. In addition, the tolerance of these subjects to the various doses of 4-GX used in the test and the pharmacokinetics for each dose administered were analysed, both in urine and blood. The doses of 4-GX used were: 0.125 g, 0.250 g, 0.5 g, 1 g, 3 g and 6 g in addition to placebo in 12 healthy volunteers with washout period between doses of between three and seven days. It should be appreciated that the 4-GX doses can include small quantities of water which remain subsequent to the drying process of the 4-GX product. For example, the 4-GX product can contain about 8 wt % to about 12 wt %, most likely about 10 wt % water, based on the total weight of the product. Accordingly, the aforementioned 4-GX doses administered would actually include 0.1125 g, 0.225 g, 0.45 g, 0.9 g, 2.7 g and 5.4 g of actual 4-GX product, respectively, if they contain 10 wt % water. The study was performed with seven treatment periods and a washout time between the various periods of at least 3 days. In each study period, an ascending dose of 4-GX was administered and the serum and urine concentrations of xylose were measured at various times up to 8 hours following the administration of the drug.
The main measured variable was the quantity of xylose in urine collected following oral administration of 4-GX at the following times: basal, 0-1 h, 1-2 h, 2-3 h, 3-4 h, 4-5 h, 5-6 h, 6-7 h and 7-8 h. Secondary variables quantified were the plasma concentration of xylose measured in blood samples extracted following the oral administration of 4-GX at the following times: basal, 30 min, 60 min, 90 min, 120 min, 150 min, 3 h, 4 h, 5 h, 6 h, 7 h and 8 h. A pharmacokinetic analysis was also performed using the values of AUC (area under the curve of variation in the plasma xylose concentration against time), Cmax (maximum xylose plasma concentration), Tmax (time at which maximum xylose plasma concentration was reached) and T1/2 (elimination half-life), calculated from the plasma concentrations of xylose derived from the hydrolysis of 4-GX by intestinal lactase.
The next objective was the determination and pharmacokinetic analysis of the xylose concentration in plasma in order to identify the smallest dose of 4-GX that could be distinguished from placebo (without 4-GX administration) to be used in the 4-GX test for the diagnosis of intestinal lactase deficiency (Table 3).

intestinal lactase [3] = target: T1, intestinal lactase; assay: Lower limits of normal (cut-off points) of xylose in urine and blood of healthy controls after 4-GX; format: in vivo; details: mean minus 1.96 SD of healthy controls
Source text: The indicator of the lower limit of normal was taken to be the difference between the average xylose concentrations in blood and/or the difference between the average total amounts of xylose excreted in the urine, and 1.96 times the standard deviation.
The data obtained with the 4-GX administration test in the healthy control group was used to determine the lower limits of normal of xylose in urine and blood (cut-off points). The cut-off points for the 4-GX test in urine were obtained for times of 4 hours and 5 hours because, as already seen in example 2, these times are the best for determining the amount of xylose excreted in urine following 4-GX administration and performing a reliable diagnosis of lactase deficiency. Similarly, the cut-off points for the determination of the blood xylose concentration following 4-GX administration were obtained for the time of 90 minutes following ingestion of the disaccharide. The difference between the average xylose concentration (in blood and the total quantity of xylose excreted in the urine) and 1.96 times the standard deviation was used for the lower limit of normal indicator. The lower limit of xylose accumulated in 4-hour urine was 27.58 mg; xylose accumulated in 5-hour urine was 37.87 mg and the increase in the concentration of plasma xylose after 90 minutes following ingestion of the product, compared to basal blood, was 0.97 mg/dL.

intestinal lactase [4] = target: T1, intestinal lactase; details: ES 2208099, cited from earlier work
[5] = Safety and tolerance of the 4-GX doses; format: in vivo, human; details: all doses of 4-GX used (0.125 g to 6 g oral)
Description: as §1, with “The study was performed with seven treatment periods and a washout time between the various periods of at least 3 days.” left out

T1 sequence (P09848 869-1927): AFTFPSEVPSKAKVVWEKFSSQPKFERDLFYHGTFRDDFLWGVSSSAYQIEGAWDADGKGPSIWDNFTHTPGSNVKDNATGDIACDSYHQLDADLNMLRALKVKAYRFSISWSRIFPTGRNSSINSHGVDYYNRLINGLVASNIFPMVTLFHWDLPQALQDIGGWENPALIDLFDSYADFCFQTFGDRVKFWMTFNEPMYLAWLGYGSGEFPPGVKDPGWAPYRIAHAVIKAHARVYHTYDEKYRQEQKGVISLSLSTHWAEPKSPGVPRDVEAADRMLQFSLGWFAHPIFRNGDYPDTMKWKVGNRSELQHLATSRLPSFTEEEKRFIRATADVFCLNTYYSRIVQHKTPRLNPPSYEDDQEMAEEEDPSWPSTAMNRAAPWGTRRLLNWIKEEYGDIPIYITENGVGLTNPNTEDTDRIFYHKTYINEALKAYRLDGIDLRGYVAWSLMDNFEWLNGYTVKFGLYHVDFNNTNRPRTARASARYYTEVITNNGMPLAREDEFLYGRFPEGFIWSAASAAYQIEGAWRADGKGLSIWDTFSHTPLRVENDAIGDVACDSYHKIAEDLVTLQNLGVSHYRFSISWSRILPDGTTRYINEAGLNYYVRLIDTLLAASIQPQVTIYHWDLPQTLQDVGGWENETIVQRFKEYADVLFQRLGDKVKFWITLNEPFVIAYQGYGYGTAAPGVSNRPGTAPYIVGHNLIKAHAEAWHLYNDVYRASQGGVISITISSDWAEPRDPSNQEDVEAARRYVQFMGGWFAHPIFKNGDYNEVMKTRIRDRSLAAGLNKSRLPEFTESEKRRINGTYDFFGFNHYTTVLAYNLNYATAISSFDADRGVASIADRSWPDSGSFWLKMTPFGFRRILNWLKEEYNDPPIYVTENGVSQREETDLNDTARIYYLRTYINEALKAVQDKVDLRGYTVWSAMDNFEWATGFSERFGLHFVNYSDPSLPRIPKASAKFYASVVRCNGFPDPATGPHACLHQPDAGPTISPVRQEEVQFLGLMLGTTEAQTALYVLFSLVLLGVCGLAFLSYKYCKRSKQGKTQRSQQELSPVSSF

O=C[C@H](O)[C@@H](O)[C@@H](CO)O[C@@H]1O[C@H](CO)[C@H](O)[C@H](O)[C@H]1O [4-GX, 4-O-β-galactopyranosyl-D-xylose]
lowest dose of 4-GX for which excretion of xylose in urine can be distinguished from placebo (intestinal lactase [1]): 0.5 g
AUC 0-t: area under the curve of plasma xylose concentration against time (intestinal lactase [2]; 4-GX 0.125 g oral): 32.49 mg/dL/h
AUC 0-t: area under the curve of plasma xylose concentration against time (intestinal lactase [2]; 4-GX 0.250 g oral): 34.25 mg/dL/h
AUC 0-t: area under the curve of plasma xylose concentration against time (intestinal lactase [2]; 4-GX 0.5 g oral): 35.53 mg/dL/h
AUC 0-t: area under the curve of plasma xylose concentration against time (intestinal lactase [2]; 4-GX 1 g oral): 36.60 mg/dL/h
AUC 0-t: area under the curve of plasma xylose concentration against time (intestinal lactase [2]; 4-GX 3 g oral): 39.24 mg/dL/h
AUC 0-t: area under the curve of plasma xylose concentration against time (intestinal lactase [2]; 4-GX 6 g oral): 41.39 mg/dL/h
lowest dose of 4-GX for which plasma xylose differs significantly from placebo (intestinal lactase [2]; healthy volunteers): 3 g
Cut-off point, total xylose in 4-hour urine (intestinal lactase [3]; 4-GX 0.125 g): 11.88 mg
Cut-off point, total xylose in 5-hour urine (intestinal lactase [3]; 4-GX 0.125 g): 16.72 mg
Cut-off point, total xylose in 4-hour urine (intestinal lactase [3]; 4-GX 0.250 g): 20.62 mg
Cut-off point, total xylose in 5-hour urine (intestinal lactase [3]; 4-GX 0.250 g): 28.08 mg
Cut-off point, total xylose in 4-hour urine (intestinal lactase [3]; 4-GX 0.5 g): 27.58 mg
Cut-off point, total xylose in 5-hour urine (intestinal lactase [3]; 4-GX 0.5 g): 37.87 mg
Cut-off point, xylose concentration in 90-min blood (increase over basal) (intestinal lactase [3]; 4-GX 0.5 g): 0.41 mg/dL
Cut-off point, total xylose in 4-hour urine (intestinal lactase [3]; 4-GX 1 g): 33.04 mg
Cut-off point, total xylose in 5-hour urine (intestinal lactase [3]; 4-GX 1 g): 41.35 mg
Cut-off point, xylose concentration in 90-min blood (increase over basal) (intestinal lactase [3]; 4-GX 1 g): 0.53 mg/dL
Cut-off point, total xylose in 4-hour urine (intestinal lactase [3]; 4-GX 3 g): 45.58 mg
Cut-off point, total xylose in 5-hour urine (intestinal lactase [3]; 4-GX 3 g): 69.57 mg and 69.75 mg
Cut-off point, xylose concentration in 90-min blood (increase over basal) (intestinal lactase [3]; 4-GX 3 g): 0.97 mg/dL
Cut-off point, total xylose in 4-hour urine (intestinal lactase [3]; 4-GX 6 g): 87.96 mg
Cut-off point, total xylose in 5-hour urine (intestinal lactase [3]; 4-GX 6 g): 110.12 mg
Cut-off point, xylose concentration in 90-min blood (increase over basal) (intestinal lactase [3]; 4-GX 6 g): 1.44 mg/dL
time of maximum xylose in plasma after ingestion (intestinal lactase [4]; 3 g 4-GX oral, lactose-tolerant adult volunteers): around 2 hours
dose of 4-GX sufficient for reliable detection of xylose in urine (intestinal lactase [4]; healthy lactose-tolerant adult volunteers): 0.25 g
adverse reactions, safety and tolerance [5]: safe and innocuous; also recorded: no clinically significant adverse reactions were found
